In assay [1] the target is T1, MEK1 (Homo sapiens, UniProt Q02750).
T1 construct: purchased Invitrogen PV3303
The assay can be described thus: Cell-free kinase assay, dose-response. Type of assay: biochemical. The settings on record: up to 1 μM; ATP 100 μM. As for the experimental part:
(§1) Cell-free kinase activity assays were performed at Reaction Biology Corporation. Briefly, kinases were incubated with substrates, 100 μM ATP and a 3-fold serial dilution of compounds starting at 1 μM. DMSO was used as control. […] Experiments were performed in duplicates. The concentrations of kinases and substrates used in the assays are indicated on Table S1. Kinase activity was quantified using the ADP-Glo™ Kinase Assay System (Promega, Madison, WI) following the manufacturer's recommendations.

The target in assay [2] is T2, BRAF (Homo sapiens, UniProt P15056).
T2 construct: purchased BPS 40005
The assay can be described thus: Cell-free kinase assay, dose-response. Type of assay: biochemical. The conditions noted are these: ATP 100 μM; read-out: IC50 BRAF (B-Raf). The protocol: as §1

The target of assay [3] is T3, ARAF (Homo sapiens, UniProt P10398).
T3 construct: purchased BPS 40010
The assay can be described thus: Cell-free kinase assay, dose-response. The class given is biochemical. The settings on record: ATP 100 μM; read-out: IC50 ARAF (A-Raf). The protocol: as §1

Assay [4] concerns the target T4, RAF-1 (Homo sapiens, UniProt P04049, Y340D/Y341D).
T4 construct: purchased Invitrogen PV3805
The assay can be described thus: Cell-free kinase assay, dose-response. The class given is biochemical. The settings on record: ATP 100 μM; read-out: IC50 RAF-1 (c-Raf). The protocol: as §1

Assay [5] concerns the target T5, p70S6K (Homo sapiens, UniProt P23443).
T5 construct: purchased Invitrogen PV3815
The assay can be described thus: Cell-free kinase assay, dose-response. The class given is biochemical. The settings on record: ATP 100 μM. The protocol: as §1

For assay [6], the target named is T6, p38 (Homo sapiens, UniProt Q16539).
T6 construct: purchased Invitrogen PV3304
The assay can be described thus: Cell-free kinase assay, dose-response. Type of assay: biochemical. The settings on record: ATP 100 μM. The protocol:
as §1

Assay [7] has as its target T7, RSK1 (Homo sapiens, UniProt Q15418).
T7 construct: purchased Invitrogen PR6812A
Nature of the assay: Cell-free kinase assay, dose-response. Type of assay: biochemical. The settings on record: ATP 100 μM. The protocol: as §1

The target in assay [8] is FLT3-ITD (Homo sapiens, UniProt P36888, ITD). The assay can be described thus: Cell-free kinase assay, dose-response (Reaction Biology, ADP-Glo). The class given is biochemical. The protocol: as §1
In general terms: ADP-Glo first removes unused ATP, then detects ADP through luciferase.

The target in assay [9] is T8, FLT3 (Homo sapiens, UniProt P36888).
T8 construct: purchased Invitrogen PV3182
T8 sequence (P36888 564-993 limits assumed): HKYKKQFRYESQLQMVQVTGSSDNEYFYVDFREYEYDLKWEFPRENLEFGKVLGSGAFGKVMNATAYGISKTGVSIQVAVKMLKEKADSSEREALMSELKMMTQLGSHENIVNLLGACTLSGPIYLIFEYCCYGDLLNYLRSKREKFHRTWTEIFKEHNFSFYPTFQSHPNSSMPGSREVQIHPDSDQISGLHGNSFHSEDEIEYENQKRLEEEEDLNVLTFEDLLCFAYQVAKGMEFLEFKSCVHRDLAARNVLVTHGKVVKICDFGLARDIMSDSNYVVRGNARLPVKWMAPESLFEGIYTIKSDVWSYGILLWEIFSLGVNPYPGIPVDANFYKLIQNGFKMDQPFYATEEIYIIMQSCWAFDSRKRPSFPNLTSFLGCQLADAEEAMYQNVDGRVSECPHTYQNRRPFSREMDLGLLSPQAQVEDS
Nature of the assay: Cell-free kinase assay, single dose (Reaction Biology, ADP-Glo). Type of assay: biochemical. The conditions noted are these: inhibitor 500 nM; 100 μM ATP; average of duplicate. The protocol: Cell-free kinase activity assays were performed at Reaction Biology Corporation. […] DMSO was used as control. […] Experiments were performed in duplicates. The concentrations of kinases and substrates used in the assays are indicated on Table S1. Kinase activity was quantified using the ADP-Glo™ Kinase Assay System (Promega, Madison, WI) following the manufacturer's recommendations.

Assay [10] concerns phospho-FLT3. Nature of the assay: Western blot, MOLM-14 (ITD, D835Y) cells. Type of assay: cell-based, human. For orientation: In western blotting, separated proteins are transferred to a membrane and probed.
Assay [11] relates to phospho-FLT3. Nature of the assay: Western blot, MV4–11 cells. The conditions noted are these: 2 nM or 10 nM, 6 h and 48 h. The class given is cell-based, human. The protocol:
(§2) MV4–11 cultures were treated with 2 nM and 10 nM of compounds for 6 h and 48 h. Total protein extraction, gel separation, transfer and imaging of blots were performed as previously described. The following primary antibodies from Cell Signaling Technologies (MA, USA) were used: Phospho-p70S6K (cat. no. 9205, RRID: AB_330944), p70S6K (cat. no. 9202, RRID: AB_331676), Phospho-p38 (cat. no. 9211, RRID: AB_331641), p38 (cat. no. 9212, RRID: AB_330713), c-Myc (cat. no. 9402, RRID: AB_2151827), Phospho-FLT3 (cat. no. 3461, RRID: AB_331060), FLT3 (cat. no. 3462, RRID: AB_10693420), Phospho-STAT5 (cat. no. 9359, RRID: AB_823649), STAT5 (cat. no. 9363, RRID: AB_2196923), Phospho-ERK (cat. no. 9101, RRID: AB_331646), ERK (cat. no. 4695, RRID: AB_390779), Phospho-AKT (cat. no. 9271), AKT (cat. no. 9272, RRID: AB_329825), Phospho-Src (cat. no. 2101, RRID: AB_331697), Src (cat. no. 2110, RRID: AB_2106058), Phospho-STAT3 (cat. no. 9145, RRID: AB_2491009), STAT3 (cat. no. 12640, RRID: AB_2629499). Mouse anti-β-Actin antibody was purchased from Sigma (MO, USA). A horseradish peroxidase-conjugated anti-rabbit or anti-mouse antibody (Cell Signaling Technologies) was used as secondary antibody. Scanned images were analyzed using image J software.

Assay [12] relates to phospho-Src. The assay can be described thus: Western blot, MV4–11 cells. Type of assay: cell-based, human. The conditions noted are these: 2 nM or 10 nM, 6 h and 48 h. As for the experimental part:
as §2

The record followed here is publication PMC6413339 (EBioMedicine, 2019).

As a reminder, the IC50 is the concentration needed to halve the response being measured. Broadly, the inhibition is the share of the control response that was lost under treatment. Read a low inhibition as a weak effect.

T3 sequence (P10398 whole entry): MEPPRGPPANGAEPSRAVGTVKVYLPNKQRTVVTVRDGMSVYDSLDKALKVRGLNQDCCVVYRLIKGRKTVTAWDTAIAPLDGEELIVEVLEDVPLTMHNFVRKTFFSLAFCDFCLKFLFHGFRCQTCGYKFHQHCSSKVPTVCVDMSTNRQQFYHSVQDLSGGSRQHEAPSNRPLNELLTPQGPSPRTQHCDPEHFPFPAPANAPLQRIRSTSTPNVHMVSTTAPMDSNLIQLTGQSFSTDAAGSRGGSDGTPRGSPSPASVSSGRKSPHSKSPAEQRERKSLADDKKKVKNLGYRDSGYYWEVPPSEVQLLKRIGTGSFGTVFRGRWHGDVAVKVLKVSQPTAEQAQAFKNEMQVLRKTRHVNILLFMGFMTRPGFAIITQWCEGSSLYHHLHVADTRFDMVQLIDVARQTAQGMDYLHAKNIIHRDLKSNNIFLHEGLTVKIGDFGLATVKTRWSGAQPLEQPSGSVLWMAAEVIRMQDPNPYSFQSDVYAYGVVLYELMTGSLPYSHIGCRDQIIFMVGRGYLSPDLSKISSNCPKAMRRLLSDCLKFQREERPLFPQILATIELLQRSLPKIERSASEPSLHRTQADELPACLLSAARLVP
T5 sequence (P23443 whole entry): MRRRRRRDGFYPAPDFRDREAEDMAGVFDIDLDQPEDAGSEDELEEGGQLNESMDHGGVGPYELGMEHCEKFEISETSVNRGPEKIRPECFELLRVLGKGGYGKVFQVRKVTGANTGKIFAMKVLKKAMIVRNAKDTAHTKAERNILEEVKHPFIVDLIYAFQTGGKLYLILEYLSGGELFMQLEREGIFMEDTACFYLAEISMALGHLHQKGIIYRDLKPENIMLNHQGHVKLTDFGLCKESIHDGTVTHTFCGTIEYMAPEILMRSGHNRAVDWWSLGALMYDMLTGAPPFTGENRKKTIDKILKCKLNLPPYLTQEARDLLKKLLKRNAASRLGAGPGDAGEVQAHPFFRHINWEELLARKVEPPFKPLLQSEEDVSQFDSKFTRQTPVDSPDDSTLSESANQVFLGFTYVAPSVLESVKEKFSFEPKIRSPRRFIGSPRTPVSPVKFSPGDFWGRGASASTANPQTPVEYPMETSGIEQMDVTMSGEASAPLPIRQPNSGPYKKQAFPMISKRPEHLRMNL
T7 sequence (Q15418 whole entry): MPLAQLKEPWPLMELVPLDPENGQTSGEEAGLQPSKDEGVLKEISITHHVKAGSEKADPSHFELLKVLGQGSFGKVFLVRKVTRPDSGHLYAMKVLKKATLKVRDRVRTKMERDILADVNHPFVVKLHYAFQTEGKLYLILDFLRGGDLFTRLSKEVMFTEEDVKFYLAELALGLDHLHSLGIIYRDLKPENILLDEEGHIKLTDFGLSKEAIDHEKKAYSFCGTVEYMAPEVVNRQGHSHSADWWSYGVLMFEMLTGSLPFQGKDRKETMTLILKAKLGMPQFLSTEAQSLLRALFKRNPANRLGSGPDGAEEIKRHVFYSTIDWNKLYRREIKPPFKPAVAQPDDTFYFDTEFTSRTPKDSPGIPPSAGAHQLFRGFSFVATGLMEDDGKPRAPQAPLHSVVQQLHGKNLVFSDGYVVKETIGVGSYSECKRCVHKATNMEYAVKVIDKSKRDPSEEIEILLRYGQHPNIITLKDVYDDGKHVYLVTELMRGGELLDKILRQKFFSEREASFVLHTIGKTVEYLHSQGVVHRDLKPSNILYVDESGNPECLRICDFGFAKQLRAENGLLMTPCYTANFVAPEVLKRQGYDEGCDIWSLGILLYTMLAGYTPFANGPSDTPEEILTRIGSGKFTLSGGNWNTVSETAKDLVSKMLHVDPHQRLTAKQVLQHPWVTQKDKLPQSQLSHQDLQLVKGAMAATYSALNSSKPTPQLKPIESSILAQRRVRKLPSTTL
T1 sequence (Q02750 whole entry): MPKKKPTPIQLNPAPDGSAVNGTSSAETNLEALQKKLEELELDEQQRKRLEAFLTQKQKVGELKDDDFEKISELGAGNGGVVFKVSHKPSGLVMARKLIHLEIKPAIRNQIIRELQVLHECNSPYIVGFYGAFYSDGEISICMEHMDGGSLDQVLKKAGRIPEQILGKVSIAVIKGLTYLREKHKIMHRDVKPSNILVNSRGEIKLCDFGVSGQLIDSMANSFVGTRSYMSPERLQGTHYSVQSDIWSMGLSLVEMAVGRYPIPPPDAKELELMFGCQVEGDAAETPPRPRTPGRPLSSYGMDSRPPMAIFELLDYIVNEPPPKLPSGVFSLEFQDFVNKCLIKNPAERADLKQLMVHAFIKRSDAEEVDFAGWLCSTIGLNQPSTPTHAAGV
T4 sequence (P04049 306-648 Y340D/Y341D limits assumed): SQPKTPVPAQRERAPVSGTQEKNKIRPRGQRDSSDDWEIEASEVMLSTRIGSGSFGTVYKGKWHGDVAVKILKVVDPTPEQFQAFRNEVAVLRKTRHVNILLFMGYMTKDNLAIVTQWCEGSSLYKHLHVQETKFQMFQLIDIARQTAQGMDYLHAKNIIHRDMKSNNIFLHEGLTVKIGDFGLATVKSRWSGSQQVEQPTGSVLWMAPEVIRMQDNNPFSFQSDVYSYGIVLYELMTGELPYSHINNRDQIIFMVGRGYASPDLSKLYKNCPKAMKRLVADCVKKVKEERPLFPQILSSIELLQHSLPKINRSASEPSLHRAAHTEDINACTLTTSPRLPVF
T2 sequence (P15056 whole entry): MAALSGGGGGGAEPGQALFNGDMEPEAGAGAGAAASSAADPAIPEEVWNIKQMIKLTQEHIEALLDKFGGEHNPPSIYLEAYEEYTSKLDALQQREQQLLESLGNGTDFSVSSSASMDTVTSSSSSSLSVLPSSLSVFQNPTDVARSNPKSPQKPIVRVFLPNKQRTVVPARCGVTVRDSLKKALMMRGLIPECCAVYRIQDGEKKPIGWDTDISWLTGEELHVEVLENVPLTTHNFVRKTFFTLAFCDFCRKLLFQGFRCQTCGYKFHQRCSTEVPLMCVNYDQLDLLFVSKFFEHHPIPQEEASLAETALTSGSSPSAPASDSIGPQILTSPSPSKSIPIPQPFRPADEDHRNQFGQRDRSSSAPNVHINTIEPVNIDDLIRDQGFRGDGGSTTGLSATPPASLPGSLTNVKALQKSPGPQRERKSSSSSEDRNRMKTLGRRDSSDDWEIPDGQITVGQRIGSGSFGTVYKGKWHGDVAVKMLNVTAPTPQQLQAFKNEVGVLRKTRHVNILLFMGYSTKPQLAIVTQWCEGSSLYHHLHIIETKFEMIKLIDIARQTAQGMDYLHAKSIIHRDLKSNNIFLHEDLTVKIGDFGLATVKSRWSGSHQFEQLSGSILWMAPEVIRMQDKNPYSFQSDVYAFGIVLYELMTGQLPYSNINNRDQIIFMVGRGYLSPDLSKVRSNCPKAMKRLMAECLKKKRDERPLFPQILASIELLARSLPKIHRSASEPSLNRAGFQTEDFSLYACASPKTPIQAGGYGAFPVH
T6 sequence (Q16539 whole entry): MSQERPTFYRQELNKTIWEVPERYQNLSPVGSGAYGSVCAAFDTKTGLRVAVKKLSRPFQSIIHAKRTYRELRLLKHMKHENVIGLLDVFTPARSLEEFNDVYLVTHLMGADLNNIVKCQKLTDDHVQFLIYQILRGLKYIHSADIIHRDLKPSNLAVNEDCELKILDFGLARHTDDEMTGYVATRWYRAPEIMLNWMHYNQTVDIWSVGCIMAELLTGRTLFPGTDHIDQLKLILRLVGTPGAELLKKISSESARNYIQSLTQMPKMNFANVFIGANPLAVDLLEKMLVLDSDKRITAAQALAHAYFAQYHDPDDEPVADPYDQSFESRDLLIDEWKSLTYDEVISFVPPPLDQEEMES

For the molecule `Cc1ncc(C(=O)Nc2ccc(CN3CCN(C)CC3)c(C(F)(F)F)c2)cc1C#Cc1c(N)ncc2ccc(F)cc12` [Compound 7], the “inhibition of MEK1 kinase activity” value in assay [1] is “but not the downstream effectors MEK1, ERK1 and RSK1”. For the same molecule, the IC50 in assay [2] was 0.0263 µM; in assay [3], 0.0276 µM; in assay [4], 0.0128 µM; in assay [5], 0.0447 µM; in [6], 0.0462 µM; in [7], 1.48 µM. Half-maximal inhibition in assay [8] (IC50) required 0.0125 µM. Besides, the inhibition at 0.5 µM in [9] turned out to be 97%. Further, the “phosphorylation of FLT3” value in assay [10] is reported as “Inhibition”; in [11], “inhibition”. Moreover, in assay [12], the “phosphorylation of Src” value is given as “inhibition”.
